Laboratory results: US12084472B2 (Ardelyx, Inc., priority 2015, dated 2024)
Marks after values point to notes of the source that are not given here.

Experiments:
human TGR5 = biological target: T1, human TGR5 (Homo sapiens, UniProt Q8TDU6); assay: Cell-based TGR5 assay (cAMP generation, HTRF); conditions: HEK293 cells stably transfected with human TGR5; cAMP by HTRF; 30 minutes at 37° C.; read-out: pEC50 Human TGR5 (converted)
T1 construct: expressed in transfected cells; host or cells: HEK293
T1 sequence (Q8TDU6 1-330): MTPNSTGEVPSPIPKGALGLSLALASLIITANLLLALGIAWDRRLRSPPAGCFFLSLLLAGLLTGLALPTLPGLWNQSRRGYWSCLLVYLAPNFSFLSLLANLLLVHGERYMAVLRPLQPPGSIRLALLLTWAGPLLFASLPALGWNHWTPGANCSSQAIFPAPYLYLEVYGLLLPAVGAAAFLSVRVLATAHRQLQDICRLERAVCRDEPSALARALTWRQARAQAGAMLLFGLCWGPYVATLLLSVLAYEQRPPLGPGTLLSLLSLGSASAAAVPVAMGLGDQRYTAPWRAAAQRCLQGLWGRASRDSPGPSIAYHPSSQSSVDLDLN
Procedure, shortened: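 Read-out was HTRF detection of cAMP, converted to concentration via a standard curve and fitted (3-parameter logistic) for pEC50 and maximal response. Agonist stimulation used HEK293 cells stably transfected with human TGR5, incubated 30 min at 37° C in IBMX-containing buffer at 0.05 nM to 10 μM compound.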

[1] = system: mice with 5-FU-induced diarrhea; assay: Chemotherapy-induced diarrhea model (5-FU), fecal form score; format: in vivo, CD-1 female mice; conditions: 5-FU 60 mg/kg IP days 5-11; I-388 30 mg/kg PO BID, teduglutide 0.4 mg/kg SQ BID, days 1-13; FFS days 11-13 summed; FIG. 1
Procedure: Four groups of adult CD-1 female mice on regular chow were dosed with the following BID starting on Day 1: 2 groups, vehicle (10% hydroxypropyl-β-cyclodextrin in PBS; PO; 5 mL/kg); 1 group, Compound I-388 at 30 mg/kg in vehicle (PO; 5 mL/kg); and 1 group, teduglutide 0.4 mg/kg (American Peptide, Sunnyvale, CA; reconstituted in PBS; SQ; 10 mL/kg) 0.4 mg/kg SQ. On Days 5-11, the groups of mice were also given QD IP injections (5 mL/kg) of the following treatments: first vehicle group, PBS and remaining groups, 5-fluorouracil (5-FU) 60 mg/kg (Fresenius Kabi USA, Lake Zurich, IL) diluted in PBS to induce mucositis with diarrhea. Body weight was measured throughout the study and fecal form was scored on Day 11-13 of the study according to the following scale: 0, normal stool; 1, slightly wet and soft stool; 2, wet and unformed stool with moderate perianal staining of the coat; 3, watery stool with severe perianal staining of the coat.
All mice were dosed on day 1-13 with vehicle, with 0.4 mg/kg of teduglutide, or with 30 mg/kg of compound I-388 (vehicle and Cmpd. I-388: PO, […] and teduglutide: SQ, 10 mL/kg). PBS or 5-FU at 60 mg/kg (used to induce mucositis and diarrhea) were administered interperionally (IP; 5 mL/kg) on days 5-11.

[2] = system: small intestine and colon of mice; assay: Small intestine and colon weight, villus/crypt length, colon crypt depth, plasma GLP-1 and GLP-2 in mice; format: in vivo, CD-1 female mice; conditions: ten consecutive days
Procedure: Tedulgutide (a GLP-2 receptor agonist; American Peptide, catalog #304076, supplied by Bachem) 50 μg/kg in […] was injected SC in a control group BID during the same period. […] The small intestine and colon were collected, flushed with cold PBS to remove contests, patted dry, weighed and further trimmed for histological analysis. Morphometric analysis was performed to determine the villus/crypt length in the proximal jejunum and distal ileum and crypt depth (length) in the proximal colon.
Data for each group are presented as mean±SEM. Statistical analyses were performed using one-way ANOVA followed by Holm-Sidak's multiple comparisons test. Statistical significance compared to vehicle (WD) is marked as *, P<0.05; **, P<0.01, ***, P<0.001, and ****, P<0.0001.

[3] = system: Western diet (WD)-fed mice; assay: Mouse model of NAFLD and mild diabetes, Western diet (WD)-fed mice: glucose, insulin, liver lipids, GLP levels; format: in vivo, C57BL/6 male mice; conditions: Western diet, liraglutide 0.4 mg/kg BID SQ, I-389 30 mg/kg BID PO, linagliptin 10 mg/kg QD PO, mean±SEM
Procedure: Seven week old C57BL/6 male mice were housed 5/cage. Two cages of mice were put on normal chow (Harlan Teklad 2018), and the remaining cages of mice were put on WD (Harlan Teklad, TD.88137, […]/0.2% cholesterol) to induce NAFLD. After 10 weeks, mice were weighed and fasted for 4 h. Blood was collected to measure fasting glucose levels, processed to plasma for measurement of insulin, triglycerides and total cholesterol. This process was repeated on Day 29 of treatment. Based on body weight and fasted glucose and insulin levels, mice were divided into 5 treatment groups (n=10/group), Table 20. […] Mice were weighed twice weekly throughout the study. On the last day of the study (Day 30, 8 hours after food removal), mice were euthanized. Blood was collected in tubes with inhibitors to block DPP-4 activity and processed to plasma for measurement of liver enzymes and GLP levels using an Ace Alera clinical analyzer and the Multi-Array Assay System from Meso Scale Discovery, respectively. The entire liver was collected, weighed, and a sample was taken and weighed for measurement of triglycerides and total cholesterol.
Data for each group are presented as mean±SEM. Statistical analyses were performed using one-way ANOVA followed by Holm-Sidak's multiple comparisons test. For GLP levels, <statistical significance compared to vehicle (WD) is marked as *, P<0.05; **, P<0.01, ***, P<0.001, and ****, P<0.0001; of linagliptin (WD) versus I-389 alone (WD) or linaglptin+I-389 (WD) is marked as †, P<0.05; ††, P<0.01, of †††, P<0.001, and ††††, P<0.0001; and of I-389 (WD) versus linagliptin (WD)+I-389 (WD) is marked as ^, P<0.05; ^ ^P<0.01, ^ ^^P, P<0.001, and ^ ^^^, P<0.0001. For the remaining parameters, statistical significance compared to vehicle (WD) is marked as *, P<0.05; **, P<0.01, ***, P<0.001, and ****, P<0.0001.

[4] = system: mice with DSS-induced colitis; assay: Inflammatory bowel disease model (DSS colitis): DAI, colon length, cytokines, histology; format: in vivo, C57BL/6 female mice; conditions: I-389 30 mg/kg PO BID
Procedure: Six week old C57BL/6 female, were acclimated for 2 days. Starting on Day −2, 5 groups of mice were dosed PO (mL/kg) BID with 1) vehicle (10% HPCD); 2) vehicle; 3) vehicle; mice had sitagliptin (3.6 g/L for a dose of ˜800 mg/kg/day) added to their drinking water; 4) I-389 30 mg/kg; or 5) I-389 30 mg/kg; mice had sitagliptin (3.6 g/L for a dose of 800 mg/kg/day) added to their drinking water. On Day 0, mice in groups 2-5 were put on drinking water containing 1.5% DSS to induce colitis. Note: Groups 3 & 5 were on drinking water containing both DSS and sitagliptin. On Day 7, mice were taken off of DSS treatment and received either regular drinking water (Groups 1, 2, and 4) or drinking water with sitagliptin (Groups 3 and 5). On Day 8, mice were transferred to a separate container for DAI scoring which consists of evaluation of stool consistency, blood in stool, incidence of rectal prolapse, and body condition according to the scoring system shown in Table 19. The DAI score is a summation of each individual score in each category (columns) for a single animal. Mice were euthanized, blood was collected for plasma, colons were removed for length measurement, cytokine analysis, and histological staining, pathological analysis and scoring of colonic tissue damage. Colonic tissue damage was scored according to observed microscopic changes based on the following schema: 0=no significant change, 1=minimal, 2=mild, 3=moderate and 4=severe. Parametric data for each group are presented as mean±SEM. Statistical analysis was performed using one-way ANOVA followed by Holm-Sidak's multiple comparisons test. Statistical significance versus DSS/vehicle is marked as *, P<0.05; **, P<0.01, ***, P<0.001, and ****, P<0.0001. Statistical significance versus DSS/I-389 is marked as †††, P<0.001. Non-parametric data for each group is shown as a dot blot with median (line). Statistical analysis was performed using Kruskal-Wallis test followed by Dunn's test to detect differences between groups.

`O=C(NCCCCNS(=O)(=O)c1ccc(Cl)c(COC2(c3cnccc3-c3ccccc3OC3CC3)CC2)c1)[C@@H](O)[C@@H](O)[C@H](O)[C@@H](O)CO` [Compound I-388, (2S,3S,4R,5S)-N-(4-[[4-chloro-3-([1-[4-(2-cyclopropoxyphenyl)pyridin-3-yl]cyclopropoxy]methyl)benzene]sulfonamido]butyl)-2,3,4,5,6-pentahydroxyhexanamide] was tested, and the EC50 (human TGR5) was < 100 nM and the “cumulative fecal form score (FFS)” value [1] was “significantly improved”.
`CC[C@H](C)[C@H](NC(=O)[C@H](Cc1ccccc1)NC(=O)[C@H](CC(=O)O)NC(=O)[C@H](CCCNC(=N)N)NC(=O)[C@H](C)NC(=O)[C@H](C)NC(=O)[C@H](CC(C)C)NC(=O)[C@H](CC(N)=O)NC(=O)[C@H](CC(=O)O)NC(=O)[C@H](CC(C)C)NC(=O)[C@@H](NC(=O)[C@@H](NC(=O)[C@H](CC(N)=O)NC(=O)[C@H](CCSC)NC(=O)[C@H](CCC(=O)O)NC(=O)[C@H](CC(=O)O)NC(=O)[C@H](CO)NC(=O)[C@H](Cc1ccccc1)NC(=O)[C@H](CO)NC(=O)CNC(=O)[C@H](CC(=O)O)NC(=O)CNC(=O)[C@@H](N)Cc1c[nH]cn1)[C@@H](C)O)[C@@H](C)CC)C(=O)N[C@@H](CC(N)=O)C(=O)N[C@@H](Cc1c[nH]c2ccccc12)C(=O)N[C@@H](CC(C)C)C(=O)N[C@H](C(=O)N[C@@H](CCC(N)=O)C(=O)N[C@H](C(=O)N[C@@H](CCCCN)C(=O)N[C@H](C(=O)N[C@H](C(=O)N[C@@H](CC(=O)O)C(=O)O)[C@@H](C)O)[C@@H](C)CC)[C@@H](C)O)[C@@H](C)CC` [teduglutide] was tested, and the “cumulative fecal form score (FFS)” value [1] was “significantly improved”, the “increase of colon weight” value ([2]; teduglutide 50 μg/kg SC BID (trend), I-389 100 mg/kg PO BID co-dosed with sitagliptin 3.6 g/L in drinking water, FIG. 7, FIG. 8) was 14% and the “increase of small intestine weight” value ([2]; teduglutide 50 μg/kg SC BID, FIG. 7) was 48%. For the same molecule, the “increase of villus-crypt length in the proximal jejunum” value ([2]; teduglutide 50 μg/kg SC BID, I-389 100 mg/kg PO BID + sitagliptin, FIG. 9) was 55% and the “increase of villus-crypt length in the distal ileum” value ([2]; teduglutide 50 μg/kg SC BID, I-389 100 mg/kg PO BID + sitagliptin, FIG. 10) was 30%.
For `CC#CCn1c(N2CCC[C@@H](N)C2)nc2c1c(=O)n(Cc1nc(C)c3ccccc3n1)c(=O)n2C` [Linagliptin, linagliptin, reference compound], the Liver weight ([3]; vehicle WD 2.13 ± 0.14) was 1.77 ± 0.11* g, the 4-h fasted insulin ([3]; vehicle WD 2.3 ± 0.3) was 1.4 ± 0.2** ng/mL and the Hepatic cholesterol ([3]; vehicle WD 8.56 ± 0.25) was 10.17 ± 0.21*** mg/g. The Hepatic triglycerides ([3]; vehicle WD 145.40 ± 14.80) was 117.90 ± 6.76 mg/g and the 4-h fasted glucose ([3]; vehicle WD 239 ± 13) was 185 ± 6** mg/dL.
For `N[C@@H](CC(=O)N1CCn2c(nnc2C(F)(F)F)C1)Cc1cc(F)c(F)cc1F` [sitagliptin], the DSS-induced colonic damage ([4]; 1.5% DSS in drinking water, sitagliptin 3.6 g/L in drinking water (~800 mg/kg/day)) was “partially abrogated”, the “disease activity score (DAI)” value ([4]; Day 8, 1.5% DSS, sitagliptin ~800 mg/kg/day in drinking water, vehicle/DSS 5.6, FIG. 2) was 3.0 and the colon length ([4]; Day 8, 1.5% DSS, sitagliptin ~800 mg/kg/day, mean±SEM, vehicle/DSS 4.7±0.1, FIG. 3) was 5.6±0.2 cm.
With `CN(CCCCNC(=O)NC[C@H](O)[C@@H](O)[C@H](O)[C@H](O)CO)S(=O)(=O)c1ccc(Cl)c(CNC2(c3cnccc3-c3ccccc3OC3CC3)CC2)c1` [Compound I-471, 1-(4-{N-methyl4-chloro-3-[({1-[4-(2-cyclopropoxyphenyl)pyridin-3-yl]cyclopropyl}amino)methyl]benzenesulfonamido}butyl)-3-[(2S,3R,4R,5R)-2,3,4,5,6-pentahydroxyhexyl]urea] the EC50 (human TGR5) was < 100 nM.
`O=C(CCCSc1ccc(Cl)c(COC2(c3cnccc3-c3ccccc3OC3CC3)CC2)c1)N(C[C@@H](O)[C@H](O)[C@@H](O)[C@@H](O)CO)[C@H]1CC[C@@H](O)CC1` [Compound I-688, 4-{[4-chloro-3-({1-[4-(2-cyclopropoxyphenyl)pyridin-3-yl]cyclopropoxy}methyl)phenyl]sulfanyl}-N-[(2R,3S,4S,5S)-2,3,4,5,6-pentahydroxyhexyl]-N-[(1s,4s)-4-hydroxycyclohexyl]butanamide] showed an EC50 (human TGR5) of 126 to 1000 nM.
